# Data as given in patent US20240400572A1, “COMPOUNDS AND METHODS FOR TREATING CANCERS THAT ARE MGMT DEFICIENT REGARDLESS OF MMR STATUS” (Yale University, priority 2021, published 2024).
# Where “and” joins values, the source holds several entries; their conditions need not be identical. Equal values may be shown once. Read-outs that look alike come from different tables or passages of the source.
# Tests used:
# [1] = tested on: genomic DNA of LN229 MGMT−/MMR+ cells; assay: Genomic DNA denaturing gel electrophoresis; type: cell-based, human; conditions: 200 μM, 24 h
# Method: Genomic DNA Denaturing Gel Electrophoresis. Cells were trypsinized, washed with 1×PBS, and stored at −80° C. prior to processing. Genomic DNA was extracted with the DNeasy Blood & Tissue Kit (Qiagen) per kit protocol. A 0.7% agarose gel was prepared in 100 mM NaCl-2 mM EDTA (pH 8) and soaked in 40 mM NaOH-1 mM EDTA running buffer for 2 h. Genomic DNA (400 ng/well) was then loaded in 1× BlueJuice loading buffer (Invitrogen) and subjected to electrophoresis at 2 V/cm for 30 min, followed by 3 V/cm for 2 h. The gel was neutralized in 150 mM NaCl-100 mM Tris (pH 7.4) for 30 min, twice, and then stained with 1× SYBR Gold in 150 mM NaCl-100 mM Tris (pH 7.4) for 90 min. Imaging was performed on a ChemiDoc XRS+ Molecular Imager (Bio-Rad).
# [2] = Pharmacokinetic study, plasma; type: in vivo; conditions: male C57BL/6 mice
# Method: Compound KL50 dosing solution: 3.39% DMSO+96.61% (10% HP-β-CD in saline) at 2 mg/mL; • 1) Weigh 17.39 mg of compound KL50 into a clean tube. • 2) Add 0.295 mL DMSO into the tube containing the compound. • 3) Vortex the tube for 3 min and sonicate it for 4 min. • 4) Add 8.400 mL 10% HP-β-CD in saline into the tube and vortex the tube for 3 min. Compound I-1 dosing solution: 3.39% DMSO+96.61% (10% HP-β-CD in saline) at 2 mg/mL; • 1) Weigh 16.86 mg Compound I-1 into a clean tube. • 2) Add 0.286 mL DMSO into the tube containing the compound. • 3) Vortex the tube for 3 min and sonicate it for 4 min. • 4) Add 8.144 mL 10% HP-β-CD in saline into the tube and vortex the tube for 3 min.
# The in-vivo pharmacokinetic and brain distribution study was conducted under the following parameters. Twenty seven C57BL/6 male mice were purchased from Shanghai JiHui Laboratory Animal Co. LTD. Each mouse weighted from 16 g to 17 g. The mice were fasted overnight and fed post 4 hr sampling. Compound KL50 and Compound I-I were administered via oral gavage (PO) at a dose of 20 mg/kg (10 mL/kg). After dosing, sampling was completed at 0.083, 0.167, 0.333, 0.5, 0.75, 1, 2, 4 and 8 hr post dose, with three mice sacrificed at each time point.
# Terminal bleeding for plasma and brain was completed at each time point. Approximately 110 μL blood per time point was collected into a K2EDTA tube via the facial vein. The blood sample was put on wet ice and centrifuged to obtain plasma sample (2000 g, 5 min under 4° C.) within 15 minutes. Plasma samples were acidified with 6 μL of formic acid for every 54 μL of plasma. After blood collection, a mid-line incision was made in the animal's scalp and the skin was retracted. The skull overlying the brain was removed. Then, the whole brain was collected, rinsed with cold saline, dried on filtrate paper, and weighed; and then snap frozen by placing the brain into dry-ice. Plasma samples were stored at approximately −70° C. until analysis. Brain tissue was homogenized with 3 volumes (v/w) of PBS (1% FA) and then analyzed with LC-MS/MS. The concentration of study drug was corrected with a dilution factor of four as following: Brain concentration=brain homogenate conc.×4, assuming 1 g wet brain tissue equals to 1 mL
# [3] = tested on: LN229 MGMT−/MMR+ and MGMT−/MMR− cells; assay: IR alkaline comet assay; type: cell-based, human
# Method: IR Alkaline Comet Assay. Assay was performed utilizing the CometAssay Kit (Trevigen) according to the alkaline assay protocol, with the addition of slide irradiation post-lysis. Cells were trypsinized, washed with 1×PBS, added to melted Comet LMAgarose (Trevigen), and spread on Trevigen CometSlides at a density of 1000 cells per sample in 50 μL. Lysis solution (Trevigen) with 10% DMSO was added overnight at 4° C. Slides were removed from lysis buffer and irradiated to 0 or 10 Gy using an XRAD 320 X-Ray System (Precision X-Ray) at 320 kV, 12.5 mA, and 50.0 cm SSD, with a 2 mm Al filter and 20 cm×20 cm collimator. Slides were then placed in alkaline buffer (200 mM NaOH, 1 mM EDTA) for 45 min, followed by electrophoresis in 850 mL alkaline buffer for 45 min at 4° C. Slides were washed and stained with SYBR gold (Invitrogen) per Trevigen assay protocol. Slides were imaged on a Cytation 3 imaging reader (BioTek), and comets were analyzed using CometScore 2.0 software (TriTek).
# We used a well-established comet assay adapted for ICL detection to determine if ICLs were formed in MGMT− cells treated with KL-50 (4a) (FIG. Z3, A and B). In this assay, cells were sequentially exposed to genotoxins and ionizing radiation, and then analyzed by single cell alkaline gel electrophoresis. Attenuation of the IR-induced comet tail is indicative of ICL formation.
smiles,measurement,setting,value
"NC(=O)c1ncn2c(=O)n(CCF)nnc12 [KL-50, 3-(2-fluoroethyl)-4-oxo-3H,4H-imidazo[4,3-d][1,2,3,5]tetrazine-8-carboxamide]",crosslinked genomic DNA (in words),[1],presence of crosslinked DNA
same,"plasma Concentration, Individuals","[2]; PO 20 mg/kg, 0.083 hr, 20 mg/kg",25600 ng/mL and 28000 ng/mL
same,"plasma Concentration, Individuals","[2]; PO 20 mg/kg, 0.167 hr, 20 mg/kg",22900 ng/mL and 18100 ng/mL
same,"plasma Concentration, Individuals","[2]; PO 20 mg/kg, 0.333 hr, 20 mg/kg",14500 ng/mL and 20900 ng/mL
same,"plasma Concentration, Individuals","[2]; PO 20 mg/kg, 0.5 hr, 20 mg/kg",12400 ng/mL and 15300 ng/mL
same,"plasma Concentration, Individuals","[2]; PO 20 mg/kg, 0.75 hr, 20 mg/kg",11000 ng/mL and 10200 ng/mL
same,"plasma Concentration, Individuals","[2]; PO 20 mg/kg, 1 hr, 20 mg/kg",7340 ng/mL and 12300 ng/mL
same,"plasma Concentration, Individuals","[2]; PO 20 mg/kg, 2 hr, 20 mg/kg",2750 ng/mL and 4570 ng/mL
same,"plasma Concentration, Individuals","[2]; PO 20 mg/kg, 4 hr, 20 mg/kg",1590 ng/mL and 796 ng/mL
same,"plasma Concentration, Individuals","[2]; PO 20 mg/kg, 8 hr, 20 mg/kg",305 ng/mL and 104 ng/mL and 185 ng/mL
same,concentration at 0.083 hr,"[2]; male, C57BL/6, mouse, plasma, po, 20 mg/kg, 0.083 hr, N=3, read-out: plasma Concentration, Mean",25300 ng/mL
same,concentration at 0.083 hr,"[2]; male, C57BL/6, mouse, plasma, po, 20 mg/kg, 0.083 hr, read-out: plasma Concentration, Individuals",22300 ng/mL
same,concentration at 0.167 hr,"[2]; male, C57BL/6, mouse, plasma, po, 20 mg/kg, 0.167 hr, N=3, read-out: plasma Concentration, Mean",21800 ng/mL
same,concentration at 0.167 hr,"[2]; male, C57BL/6, mouse, plasma, po, 20 mg/kg, 0.167 hr, read-out: plasma Concentration, Individuals",24500 ng/mL
same,concentration at 0.333 hr,"[2]; male, C57BL/6, mouse, plasma, po, 20 mg/kg, 0.333 hr, N=3, read-out: plasma Concentration, Mean",18100 ng/mL
same,concentration at 0.333 hr,"[2]; male, C57BL/6, mouse, plasma, po, 20 mg/kg, 0.333 hr, read-out: plasma Concentration, Individuals",19000 ng/mL
same,concentration at 0.5 hr,"[2]; male, C57BL/6, mouse, plasma, po, 20 mg/kg, 0.5 hr, N=3, read-out: plasma Concentration, Mean",14000 ng/mL
same,concentration at 0.5 hr,"[2]; male, C57BL/6, mouse, plasma, po, 20 mg/kg, 0.5 hr, read-out: plasma Concentration, Individuals",14400 ng/mL
same,concentration at 0.75 hr,"[2]; male, C57BL/6, mouse, plasma, po, 20 mg/kg, 0.75 hr, N=3, read-out: plasma Concentration, Mean",10300 ng/mL
same,concentration at 0.75 hr,"[2]; male, C57BL/6, mouse, plasma, po, 20 mg/kg, 0.75 hr, read-out: plasma Concentration, Individuals",9590 ng/mL
same,concentration at 1 hr,"[2]; male, C57BL/6, mouse, plasma, po, 20 mg/kg, 1 hr, N=3, read-out: plasma Concentration, Mean",10000 ng/mL
same,concentration at 1 hr,"[2]; male, C57BL/6, mouse, plasma, po, 20 mg/kg, 1 hr, read-out: plasma Concentration, Individuals",10500 ng/mL
same,concentration at 2 hr,"[2]; male, C57BL/6, mouse, plasma, po, 20 mg/kg, 2 hr, N=3, read-out: plasma Concentration, Mean",3300 ng/mL
same,concentration at 2 hr,"[2]; male, C57BL/6, mouse, plasma, po, 20 mg/kg, 2 hr, read-out: plasma Concentration, Individuals",2580 ng/mL
same,concentration at 4 hr,"[2]; male, C57BL/6, mouse, plasma, po, 20 mg/kg, 4 hr, N=3, read-out: plasma Concentration, Mean",1150 ng/mL
same,concentration at 4 hr,"[2]; male, C57BL/6, mouse, plasma, po, 20 mg/kg, 4 hr, read-out: plasma Concentration, Individuals",1060 ng/mL
same,concentration at 8 hr,"[2]; male, C57BL/6, mouse, plasma, po, 20 mg/kg, 8 hr, N=3",198 ng/mL
same,AUC(0-inf),"[2]; mouse, plasma, PO 20 mg/kg",28800 ng·h/mL
same,AUC(0-t),"[2]; mouse, plasma, PO 20 mg/kg",28400 ng·h/mL
same,Cmax,"[2]; mouse, plasma, PO 20 mg/kg",25300 ng/mL
same,MRT inf,"[2]; mouse, plasma, PO 20 mg/kg",1.47 h
same,Tmax,"[2]; mouse, plasma, PO 20 mg/kg",4.98 min
same,half-life,"[2]; mouse, plasma, PO 20 mg/kg",1.49 h
same,"effect on IR-induced comet tail, ICL detection (in words)","[3]; MGMT−/MMR+ cells, 200 μM for 24 h, 10 Gy",reduced the % DNA in the tail to levels similar to those seen for 0.1 μM MMC
same,comet tailing in the absence of IR (in words),"[3]; MGMT−/MMR+ cells, TMZ and KL-50 200 μM, MMC 0.1 or 50 μM",induced tailing
same,DNA damage in unirradiated samples (in words),"[3]; MGMT−/MMR− cells, 200 μM, 2, 8 or 24 h, 0 Gy","induced maximal damage at 2 h, which decreased over time"
same,"rate of ICL formation, DNA mobility after IR (in words)","[3]; MGMT−/MMR− cells, 200 μM, 2, 8 or 24 h, 10 Gy",time-dependent decrease in DNA mobility
